# Legend:
# sugarcane choplets [1] = test: Survival in synthetic soil of choplets from hardened plantlets after one-day immersion in water or hormone media; assay type: in vivo; settings: 1-day choplet treatment, 40 planted; for % surviving: day 10 in soil; for alive @ day 10: soil, artificial growth chamber
# Description: This example describes choplet growth outcomes in soil (survival; morphology) when the plantlets were hardened by various treatments such as nutrient deprivation or osmoticum exposure. The hardening protocols for the plantlets were gradual (multi-day) acclimation of the tissue to decreasing sucrose and/or to increasing polyethylene glycol 6000 (PEG-6000) in LPM. The hardening treatment was evaluated at two stages: the growth of treated plantlets transplanted to synthetic soil; and the survival of choplets from plantlets in a controlled environment.
# In another study, three hardening treatments were evaluated but group C hardening treatment was modified: Group C plantlets were grown in LPM for 7 days followed by transfer every two days to a medium containing higher PEG-6000 levels until the medium content had 3% sucrose and 0.2% PEG-6000. At the end of growth in tissue culture (17 days), the plantlets were transplanted to soil.
# The second test of these treated plantlets was to produce choplets and evaluate the choplets' success when transplanted to synthetic soil (Table 4). Choplets were produced from sugarcane plantlets followed by a one-day immersion in a media of water, a known plant media, or a known plant media or water containing a growth hormone, such as (6-benzylaminopurine (BAP) or gibberellins 3 (GA3)). […] Choplet preparation may comprise plantlet hardening treatment and/or media treatment after formation of a choplet.
# sugarcane choplets [2] = test: Soil outcomes of unembedded and embedded (F4 paper tube artificial seed) choplets incubated in various media; assay type: in vivo; settings: 21 hr in bathing solution, MetroMix soil
# Description: This example describes the soil growth advantage conferred by the enclosure or encapsulation of sugarcane choplets in paper tubes with Parafilm™ covers at bottom and top. The choplets were from plantlets produced by a standard plantlet production process or from a hardening treatment (e.g. high CO2) in the temporary immersion Adaptis™ bioreactors. The choplets were incubated in various media. The media were sterile water; LPM; BAP=[…] prepared by solubilizing solid in dimethylsulfoxide to make 1 mg/mL stock then diluted stock solution in water (50 uL to 50 mL final volume) to prepare 1 mg/L working solution; GA3=giberellin 3 prepared by diluting commercial stock solution (1 mg/mL) in water to form a 1 mg/L working solution. The choplets were segregated into 4 groups of at least 50 choplets. Each group of choplets was weighed on a petri dish before addition of the 7 mL of bathing solution: water; LPM; BAP; and GA3. Each dish was covered and the edge was sealed with 3M Micropore™ tape. The petri dishes were secured to a nutator inside a walk-in growth chamber for 21 hr. For each choplet group, either ten (10) or twenty (20) F4 paper seed structures containing MetroMix™ soil and 200 uL water were assembled with triblock top and bottom lids. The structures were transplanted in a flat containing water-saturated MetroMix™ soil such that the top of the seed design is flush with the top of the soil surface. Encapsulating the choplet in an artificial seed provided improvement in soil survival for all media incubation groups except GA3.
# [3] = hardening Group B (lowered sucrose)
# [4] = choplets in F4 paper tube artificial seeds
Compound,% surviving (sugarcane choplets [1]; hardening Group A (LPM)) [%],alive @ day 10 (sugarcane choplets [1]; hardening Group A (LPM)),% surviving (sugarcane choplets [1]; [3]) [%],alive @ day 10 (sugarcane choplets [1]; [3]),% surviving (sugarcane choplets [1]; hardening Group C (PEG-6000)) [%],alive @ day 10 (sugarcane choplets [1]; hardening Group C (PEG-6000)),Surviving on day 6 (sugarcane choplets [2]; [4]),Surviving on day 17 (% surviving) (sugarcane choplets [2]; [4]) [%],Surviving on day 17 (number) (sugarcane choplets [2]; [4]),Surviving on day 6 (sugarcane choplets [2]; unembedded choplets),Surviving on day 17 (% surviving) (sugarcane choplets [2]; unembedded choplets) [%],Surviving on day 17 (number) (sugarcane choplets [2]; unembedded choplets)
"C=C1C[C@]23C[C@@]1(O)CC[C@H]2[C@@]12C=C[C@H](O)[C@@](C)(C(=O)O1)[C@H]2[C@@H]3C(=O)O [GA3, gibberellins 3]",10,4,25,10,38,15,20,30,6,9,29,4
"c1ccc(CNc2ncnc3nc[nH]c23)cc1 [BAP, 6-benzylaminopurine]",18,7,28,11,25,10,20,55,11,6,7,1

# From patent US20180177147A1, “METHODS AND COMPOSITIONS FOR CULTIVATING PLANTS AND ARTIFICIAL PLANT SEEDS” (E I DU PONT DE NEMOURS AND COMPANY, priority 2014, published 2018)
